In experiment [1] the test system is herring sperm dsDNA. In words: Acridine orange with dsDNA, spectrofluorometry λem 530 nm. The class given is binding. The settings on record: AO-DNA, AO [2 μM], DNA [>20 μM], hydrochloride. How it is done:
In another implementation, a spectrofluorometric analysis of the interaction of AO with dsDNA at λex 485 nm and λem 530 nm and 635 nm was also conducted. The interaction of DNA with lower concentrations of AO [2 μM] mimicked the results found at the higher AO concentration of 20 μM for bp:AO ratios of 4:1 and above. The association curve for AO over a series of steadily increasing DNA concentrations ranging from […] of DNA is shown in FIG. 3-8.
The example shown in FIG. 3-8 illustrating the effect of NaCl on the fluorescence of 2 μM AO was determined over a range of bp:AO ratios from 4 to 62.5. The excitation wavelength was 485 nm while emission was monitored at 530 nm. The association constant for 2 μM AO with DNA was determined to be 31,990±310 M^−1 (R^2=0.98) in the absence of NaCl and 31,690±498 M^−1 (R^2=0.96) in the presence of NaCl. Error bars are shown to denote confidence intervals at 95% unless hidden by a data point symbol. The delta fluorescence values were obtained by subtracting the background fluorescence of HEPES buffered AO at 2 μM in the absence of DNA. The association constant for the interaction of AO with DNA was determined to be 31,990±3,190 M^−1.

The conditions of experiment [2]: AO-AO, AO [20 μM], Kapuscinski & Kimmel, 1993, cited from earlier work.
Experiment [3] concerns herring sperm dsDNA. In words: Acridine orange titrated with dsDNA, absorbance. The format is binding. The note with it: AO-DNA. The source says: Experiments were undertaken to characterize the interaction of AO with DNA over a range of DNA base pairs (bp) to AO ratios in the absence of, and in the presence of, a physiological concentration of NaCl. […] The example shown in FIG. 3-6 is a dsDNA bp: AO ratio of selected spectra denoting important transitions within the titration series are denoted with bolder lines. Some of the spectral series is not shown to simplify the data presentation. At bp: AO ratios between 0.0 and 0.75, prevalent peaks occur at 8abs of 468 nm and 492 nm. […] The absorbance spectra from bp: AO ratios above 0.75 denote a definitive red-shift in absorbance with the simultaneous creation of two distinct peaks, one at 475 nm and the other at 503 nm. With continued additions of aliquots of DNA, the absorbance peak near 468 nm is still apparent while the initial main absorbance peak at 492 nm is minimally detectable. […] Additionally, at bp:AO ratios of about 1.72. The absorbance peak near λabs 503 nm increased in amplitude with each additional aliquot of DNA. […] The association constant was calculated from a plot of delta absorbance values at 504 nm versus DNA concentration (see inset FIG. 3-7). The DNA concentrations ranged from 30:M to 170:M.

Experiment [4] in a line: AO-CAF complex, spectrofluorometry λex 485 nm / λem 530 nm. The class given is binding. The note with it: AO [2 μM], CAF [1-20 μM]. How it is done: Spectrofluorometric analysis was performed at an AO concentration of 2 μM to determine the effect of CAF and a physiological concentration of NaCl on the fluorescence spectra of AO. CAF was added over a series of CAF:AO molecular ratios ranging from 2500:1 to 0.5:1 and the fluorescence intensity determined at λem 530 nm and 635 nm. The fluorescence intensity was again determined following the addition of NaCl to a final concentration 150 mM and pH 7.0 to each test well containing both AO and CAF.
The data in FIG. 3-5A depicts the mean fluorescence values at λem 530 nm of 2 μM AO with CAF in the absence of, and in the presence of, 150 mM NaCl over a range of CAF to AO molecular ratios from 0.5 to 10.0 (1 μM to 20 μM CAF). The example shown in FIG. 3-5A is a plot of fluorescence intensity of AO excited at λex 485 nm and monitored at λem 530 nm versus CAF concentration to show the effect of CAF and NaCl on the fluorescence of AO and the formation of the AO-CAF complex. Solutions of 2 μM AO were analyzed using spectrofluorometric techniques in the presence of various concentrations of CAF with and without addition of NaCl [150 mM]. […] However at the CAF concentration of 5 mM (molecular ratio 2,500:1) there was a significant change in the mean fluorescence intensity with the value going from 1,245±53 for CAF and AO alone to 1,150±34 with the addition of 150 mM NaCl. […]

For experiment [5], the system named is chicken erythrocyte nuclear chromatin. In words: Removal of acridine orange from stained chicken erythrocyte nuclear chromatin by xanthine rinse, fluorescence microscopy. The note with it: slides stained with 10 mM AO; rinse with 50 mM for 10 minutes.

We go through 2 compounds from patent US7662767B2, “Polynucleotide intercalator interceptors and inhibitors” (Materials Evolution and Development USA, Inc., priority 2000, dated 2010).

Where “and” joins values, the source holds several entries; their conditions need not be identical. Equal entries are not always repeated. Where two headings read alike, the source gives them in different places.

Consider `CN(C)c1ccc2cc3ccc(N(C)C)cc3nc2c1.Cl` [AO, 3,6-bis[dimethylamino]acridine hydrochloride], for which the “K ± S.D.” value in experiment [1] (Fluorescence plus NaCl) is 31,690±498 M^−1 and 31,690±4,980 M^−1; in experiment [1] (Fluorescence plus NaCl, listed as AO-DNA) it was 31,690 ± 4,890 M^−1; in experiment [1] (Fluorescence, absence of NaCl), 31,990±310 M^−1 and 31,990±3,190 M^−1; in experiment [1] (Fluorescence, absence of NaCl, listed as AO-DNA), 31,990 ± 3,190 M^−1; in experiment [2] (Absorbance (mathematical model)), 29,100 M^−1; in experiment [2] (Absorbance plus NaCl 150 mM) it was 42,500 M^−1. Also, the “K ± S.D.” value in experiment [3] (Absorbance (504 nm), AO [3 μM], DNA [5-170 μM], hydrochloride) was 37,660±431 M^−1; in experiment [3] (Absorbance (504 nm), AO [3 μM], DNA [5-170 μM], listed as AO-DNA, hydrochloride), 37,660 ± 431 M^−1; in experiment [3] (Absorbance, AO [0.1-3 μM], DNA [100 μM]) it was 33,510 ± 285 M^−1; in experiment [3] (Absorbance, AO [0.8-3.4 μM], DNA [20 μM]), 31,960 ± 316 M^−1.
With `Cn1c(=O)c2c(ncn2C)n(C)c1=O` [1,3,7-trimethyl xanthine (caffeine), 1,3,7-trimethyl xanthine], the “K ± S.D.” value in experiment [4] (Fluorescence plus NaCl 150 mM) is 216 ± 20 M⁻¹; in experiment [4] (Fluorescence, absence of NaCl), 254 ± 27 M⁻¹. In addition, the “fluorescence intensity after rinse” value in experiment [5] is “reduced the fluorescence intensity to background level”.
